For the compound `*C(=O)c1ccc2c(c1)C(=O)N(c1cccc(C(=O)N(C)c3ccc(N4C(=O)c5ccc(*)cc5C4=O)cc3)c1)C2=O` (repeat unit), the glass transition temperature was determined as 260.50 °C.
With `*c1ccc2c(c1)C(=O)N(c1cccc(Oc3ccc(C(c4ccc(Oc5cccc(N6C(=O)c7ccc(C(*)(C(F)(F)F)C(F)(F)F)cc7C6=O)c5)cc4)(C(F)(F)F)C(F)(F)F)cc3)c1)C2=O` (repeat unit), the glass transition temperature came to 224.00 °C.
For `*c1ccc2c(c1)C(=O)N(c1cccc(Oc3ccc(P(=O)(c4ccccc4)c4ccc(Oc5cccc(N6C(=O)c7ccc(C(*)(C(F)(F)F)C(F)(F)F)cc7C6=O)c5)cc4)cc3)c1)C2=O` (repeat unit) the value was 243.00 °C.
As for `*c1ccc2c(c1)C(=O)N(c1cccc(Oc3ccc(S(=O)(=O)c4ccc(Oc5cccc(N6C(=O)c7ccc(C(*)(C(F)(F)F)C(F)(F)F)cc7C6=O)c5)cc4)cc3)c1)C2=O` (repeat unit), the figure is 209.50 °C; as for `*c1ccc2c(c1)C(=O)N(c1cccc(Oc3cccc(N4C(=O)c5ccc(C(*)(C(F)(F)F)C(F)(F)F)cc5C4=O)c3)c1)C2=O` (repeat unit), 244.00 °C.
As for `*c1ccc2c(c1)C(=O)N(c1cccc(Oc3cccc(N4C(=O)c5ccc(C(F)(F)C(F)(F)C(*)(F)F)cc5C4=O)c3)c1)C2=O` (repeat unit), the figure is 312.00 °C.
`*c1ccc2c(c1)C(=O)N(c1cccc(P(=O)(c3ccc(C(F)(F)F)cc3)c3cccc(N4C(=O)c5ccc(C(*)(C(F)(F)F)C(F)(F)F)cc5C4=O)c3)c1)C2=O` (repeat unit) gave a glass transition temperature of 260.00 °C.
Take `*c1ccc2c(c1)C(=O)N(c1cccc(P(=O)(c3ccc(Oc4ccc(C56CC7CC(CC(C7)C5)C6)cc4)cc3)c3cccc(N4C(=O)c5ccc(C(*)(C(F)(F)F)C(F)(F)F)cc5C4=O)c3)c1)C2=O` (repeat unit): the glass transition temperature came to 298.00 °C.
Compound `*c1ccc2c(c1)C(=O)N(c1cccc(P(=O)(c3ccccc3)c3cccc(N4C(=O)c5ccc(C(*)(C(F)(F)F)C(F)(F)F)cc5C4=O)c3)c1)C2=O` (repeat unit) returned a glass transition temperature of 271.00 °C.
For the compound `*c1cccc(C(c2cccc(N3C(=O)c4ccc(-c5ccc6c(c5)C(=O)N(*)C6=O)cc4C3=O)c2)(C(F)(F)F)C(F)(F)F)c1` (repeat unit), the glass transition temperature worked out at 267.00 °C.
As for `*c1cccc(N2C(=O)c3ccc(C(c4ccc5c(c4)C(=O)N(c4cccc(N6C(=O)c7ccc(-c8ccc9c(c8)C(=O)N(*)C9=O)cc7C6=O)c4)C5=O)(C(F)(F)F)C(F)(F)F)cc3C2=O)c1` (repeat unit), the figure is 308.00 °C; as for `*c1cccc(OCCCCCCCCCCOc2cccc(N3C(=O)c4ccc(-c5ccc6c(c5)C(=O)N(*)C6=O)cc4C3=O)c2)c1` (repeat unit), 125.00 °C; as for `*c1cccc(OCCCCCCCCOc2cccc(N3C(=O)c4ccc(-c5ccc6c(c5)C(=O)N(*)C6=O)cc4C3=O)c2)c1` (repeat unit), 138.00 °C.
`*c1cccc(OCCCCCCCCOc2cccc(N3C(=O)c4ccc(-c5cccc6c5C(=O)N(*)C6=O)cc4C3=O)c2)c1` (repeat unit) had a glass transition temperature of 142.00 °C.
`*c1cccc(OCCCCCCOc2cccc(N3C(=O)c4ccc(-c5cccc6c5C(=O)N(*)C6=O)cc4C3=O)c2)c1` (repeat unit) returned a glass transition temperature of 157.00 °C.
For `*c1cccc(OCCCCCOc2cccc(N3C(=O)c4ccc(-c5cccc6c5C(=O)N(*)C6=O)cc4C3=O)c2)c1` (repeat unit) the value was 168.00 °C.
For `*c1cccc(OCCCCOc2cccc(N3C(=O)c4ccc(-c5ccc6c(c5)C(=O)N(*)C6=O)cc4C3=O)c2)c1` (repeat unit) the value was 175.00 °C; for `*c1cccc(Oc2cccc(Oc3cccc(N4C(=O)c5ccc(-c6cccc7c6C(=O)N(*)C7=O)cc5C4=O)c3)c2)c1` (repeat unit), 213.00 °C.

Source of the values: the PolyMetriX glass transition set.
